Test results from article PMC12680756, “Reflectometric-based sensor arrays for the screening of kinase-inhibitor interactions and kinetic determination” (Analytical and Bioanalytical Chemistry, 2025).

Columns and labels:
[1] = biological target: T1, FAK (Homo sapiens, UniProt Q05397); assay: 1-lambda reflectometry inhibitor screening on spotted sensor array, FAK; format: binding; details: sensograms Fig. 5c; for order regarding the strength of the association: FAK as kinase sample
Description: (§1) • Manual spotting: the inhibitor dissolved in DMSO (1 mg/mL) was dropped to the measurement region on the transducer by pipetting. The immobilization process was as specified above. • Automatic spotting: the inhibitor dissolved in DMSO (1 mg/mL) was dropped to the measurement region on the transducer via the ceramic pin of the spotter. The droplets were dried under ambient conditions, and the process was repeated twice. After drying the last droplet, the transducer was prepared for measurements or stored at 4°C.
(§2) Screening was performed with 1-lambda reflectometry and transducers on which different inhibitors were spotted in the measurement area. The measurement protocols were the same as for the single assays.

[2] = test system: PKA in the protein mix; assay: 1-lambda reflectometry inhibitor screening on spotted sensor array, protein mix; format: binding, bovine; details: for order of binding affinity by color change of the spots (naked eye): protein mix 50 µg/mL, image after association, Fig. 5a; for increase of the average relative signal: protein mix, sensograms Fig. 5c, immobilized inhibitor spot
Description: as §1, §2
One region per row was set as the reference ROI void of inhibitor.

[3] = biological target: protein mix containing cAMP-dependent protein kinase (PKA) (Bos taurus, UniProt P00517); assay: 1-lambda reflectometry single assays, protein mix flushed over immobilized inhibitor, kinetic evaluation; details: read-out: dissociation rate constant kd
[4] = biological target: T1, FAK; assay: Competitive MST assay, labeled STP-FAK complex titrated with another inhibitor; format: binding; details: labeled STP (40 µM) in complex with FAK (40 nM)
Description: Microscale thermophoresis was performed with the instrument Monolith NT.115, capillaries and MO.Control Software from Nanotemper Technologies, Munich, Germany. For each experiment, 16 capillaries were filled with a sample solution. […] The fluorescence of a specific area of each capillary was measured prior and during the thermophoresis experiment. For a better comparability, the fluorescence intensity obtained during the measurement was normalized to the fluorescence in each capillary recorded prior to the start of the experiment.

T1 sequence (Q05397 410-689, species assumed): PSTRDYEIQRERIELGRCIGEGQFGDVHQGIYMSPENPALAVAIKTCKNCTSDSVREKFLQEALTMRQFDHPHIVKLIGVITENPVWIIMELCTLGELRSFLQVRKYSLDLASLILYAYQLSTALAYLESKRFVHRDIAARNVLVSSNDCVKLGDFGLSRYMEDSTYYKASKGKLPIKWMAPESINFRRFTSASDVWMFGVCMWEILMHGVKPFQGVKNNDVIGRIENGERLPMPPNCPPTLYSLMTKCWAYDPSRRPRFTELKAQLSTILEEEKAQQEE

SMILES | order of binding affinity by color change of the spots (naked eye) [2] | koff [3] [s⁻¹] | increase of the relative signal ([1]; FAK, immobilized inhibitor spot) [%] | order regarding the strength of the association [1] | increase of the average relative signal [2] [%] | shape of dose-response curve in competitive MST [4]
CN[C@@H]1C[C@H]2O[C@@](C)([C@@H]1OC)n1c3ccccc3c3c4c(c5c6ccccc6n2c5c31)C(=O)NC4 [STP, Staurosporine] | imatinib > fragment2 > fragment1 > STP |  |  |  |  | 
Cl.Cn1cc(C2=C(c3c4n(c5ccccc35)CCC(CN)C4)C(=O)NC2=O)c2ccccc21 (centres unmarked) [BisX, Bisindolylmaleimide X] |  |  |  |  |  | the slope was inversed compared to the one of the direct assays

Second part, led by results:

order of binding affinity by color change of the spots (naked eye) [2] | koff [3] [s⁻¹] | increase of the relative signal ([1]; FAK, immobilized inhibitor spot) [%] | SMILES | order regarding the strength of the association [1] | increase of the average relative signal [2] [%] | shape of dose-response curve in competitive MST [4]
imatinib > fragment2 > fragment1 > STP |  |  | Nc1ncnc(Nc2ccc(F)cc2)n1 [fragment2] | STP > imatinib > fasudil > fragment2 > fragment1 |  | 
strongest color change |  |  | O=S(=O)(c1cccc2cnccc12)N1CCCNCC1 [fasudil] | STP > imatinib > fasudil > fragment2 > fragment1 | 1.7 | 
imatinib > fragment2 > fragment1 > STP | 0.007 |  | COc1ccc(-c2cc(N)[nH]n2)cc1Cl [fragment1] | STP > imatinib > fasudil > fragment2 > fragment1 |  | 
imatinib > fragment2 > fragment1 > STP |  | 0.13 | Cc1ccc(NC(=O)c2ccc(CN3CCN(C)CC3)cc2)cc1Nc1nccc(-c2cccnc2)n1 [imatinib] | STP > imatinib > fasudil > fragment2 > fragment1 | 0.84 | 
